What was measured:
MC38 tumor = conditions: intratumoral injection, Cy5 label
Description: The images were processed and analyzed by software sold under the tradename LIVING IMAGE® 4.7.2 (PerkinElmer, Waltham, Massachusetts, United States of America).

[1] = Toxicity after intravenous injection; type: in vivo; conditions: C57BL/6 mice, biweekly, total of 4 doses

Molecule | fluorescence signal retention in tumor (MC38 tumor) | toxicity (bodyweight gains) [1]
Nc1nc2c(ncn2[C@@H]2O[C@@H]3COP(=O)(O)O[C@H]4[C@@H](O)[C@H](n5cnc6c(N)ncnc65)O[C@@H]4COP(=O)(O)O[C@@H]2[C@@H]3O)c(=O)[nH]1 [cGAMP, cyclic guanosine monophosphate-adenosine monophosphate] | diffused and disappeared quickly | –
Ir(DBB)[dF(CF3)ppy]2^+ [DBB^F-Ir] | – | did not cause toxicity

From patent publication US20230293698A1, “METAL-ORGANIC FRAMEWORKS DELIVER SMALL MOLECULES AND BIOMACROMOLECULES FOR CANCER IMMUNOTHERAPY” (The University of Chicago, priority 2020, published 2023)
